Measured values taken from patent US7214673B2, “Piperazine substituted aryl benzodiazepines and their use as dopamine receptor antagonists for the treatment of psychotic disorders” (Eli Lilly and Company, priority 2002, dated 2007).
Structures can show the parent of a compound that is named as a salt.

Legend:
[1] = biological target: T1, Dopamine D2 receptor (Homo sapiens, UniProt P14416); assay: Dopamine D2 receptor binding assay ([125I]iodospiperone); settings: [125I]iodospiperone 0.1 nM, D2 receptor membranes, 2 hours at room temperature; read-out: Relative D2 Receptor Binding Affinity Ki
T1 construct: purchased Receptor Biology (now owned by NEN) RBHD2CM
Method: Serotonin 5-HT6 and Dopamine D2 Binding Assay Protocol
The assay buffers used are 50 mM Tris-HCl pH 7.4, 120 mM NaCl, 5 mM KCl, 5 mM MgCl2, 1 mM EDTA for the Dopamine D2s receptor binding assay. […] The membranes used are from Receptor Biology (now owned by NEN), Cat #RBHD2CM for the D2 receptor.
Compounds are obtained as 10 mM stocks in 100% DMSO. They are diluted to 1 mM in 100% DMSO by adding 180 μL DMSO to 20 μL of stock in 96 well plates using a multidrop. […] This is done using a TECAN robot.
The radioligand is diluted in assay buffer to provide 0.1 nM for the D2 assay. Each vial of membranes is diluted up to 92 mL in assay buffer. The final assay volume is 250 μL consisting of 210 μl of diluted membranes, 20 μL of compound or 10% DMSO for total binding, and 20 μL of diluted radioligand. The compounds are transferred from drug dilution plates into coming 96 well assay plates using a 96 well Multimek pipettor. Radioligand and membranes are added to assay plates using multidrop pipettors. Non-specific binding is determined in wells containing a final concentration of 5 μM haloperidol. The final drug concentration range in half logs is from 10 μM down to 0.1 nM.
After addition of drug, membrane, and ligand, the plates are incubated for 2 hours at room temperature. During this time 96 well Millipore filter plates (MAFBNOB50) are soaked for a least 30 minutes with 200 μL per well of 0.5% polyethyleneimine.
The 0.5% PEI is removed from filterplate wells using a TiterTek MAP aspirator and 200 μL of the incubation mixture is transferred from the incubation plate to the filterplate after mixing. This transfer is done using the 96 tip Mutimek pipettor. After transfer to the filterplate filterplates are extracted and ished twice with 220 μL per well of cold buffer on the MAP aspirator. The peel away bottoms are removed from the filterplates and 60 μL per well of microscint 20 scintillation fluid is added per well using a multidrop. Plates are placed into suitable holders and are left at room temperature for 3 hours and are counted for ^3H in either a Wallac Microbeta counter or on a Packard Topcount.

T1 sequence (P14416 1-414 isoform P14416-2): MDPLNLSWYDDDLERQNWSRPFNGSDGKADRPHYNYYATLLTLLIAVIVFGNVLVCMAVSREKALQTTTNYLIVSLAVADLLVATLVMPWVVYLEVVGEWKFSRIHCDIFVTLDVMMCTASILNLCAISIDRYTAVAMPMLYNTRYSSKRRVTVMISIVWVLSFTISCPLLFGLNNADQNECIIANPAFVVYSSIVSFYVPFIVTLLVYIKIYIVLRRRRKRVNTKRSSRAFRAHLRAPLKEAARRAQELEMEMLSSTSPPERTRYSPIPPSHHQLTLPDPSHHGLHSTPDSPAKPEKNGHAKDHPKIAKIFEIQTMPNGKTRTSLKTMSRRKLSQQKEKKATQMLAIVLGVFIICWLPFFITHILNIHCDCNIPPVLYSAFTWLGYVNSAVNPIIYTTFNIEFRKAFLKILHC

Structure (SMILES)	Ki [1] [nM]	melting point
Cc1cc2c(s1)Nc1ccccc1N=C2N1CCN(C)[C@@H](Cc2cccc(Cl)c2)C1 [Example 119]	10 to 100	
Cc1nc2c(s1)Nc1ccccc1N=C2N1CCN[C@@H](CCc2ccccc2)C1 [Example 460, (S)-2-Methyl-10-(3-phenethyl-piperazin-1-yl)-4H-3-thia-1,4,9-triaza-benzo[f]azulene dihydrochloride hemihydrate]	< 10	
CC(C)n1nc2c(n1)C(N1CCN(C)[C@@H](CCc3ccccc3)C1)=Nc1ccccc1N2 [Example 595, (S)-2-Isopropyl-10-(4-methyl-3-phenethyl-piperazin-1-yl)-2,4-dihydro-1,2,3,4,9-pentaaza-benzo[f]azulene dihydrochloride hemihydrate]	10 to 100	
Cc1cc2c(s1)Nc1ccccc1N=C2N1CCN(C)[C@@H](Cc2ccccc2)C1 [Example 92]	10 to 100	94 to 97 °C
Cc1cc2c(s1)Nc1ccccc1N=C2N1CCN[C@@H](Cc2ccsc2)C1 [Example 212]	< 10	82 to 94 °C
Cc1cc2c(s1)Nc1ccccc1N=C2N1CCN(C)[C@@H](Cc2ccsc2)C1 [Example 219]	10 to 100	58 to 72 °C
Cc1cc2c(s1)Nc1ccccc1N=C2N1CCN(C)[C@@H](CCc2ccccc2)C1 [Example 90, 2-Methyl-10-(4-methyl-3-(S)-phenethyl-piperazin-1-yl)-4H-3-thia-4,9-diaza-benzo[f]azulene]	10 to 100	87 to 91 °C
COc1cccc(CC[C@H]2CN(C3=Nc4ccccc4Nc4sc(C)cc43)CCN2)c1 [Example 180, 10-((S)-3-(2-(3-Methoxy-phenyl)-ethyl)-piperazin-1-yl)-2-methyl-4H-3-thia-4,9-diaza-benzo[f]azulene dihydrochloride]	< 10	
Cc1cc2c(s1)Nc1ccccc1N=C2N1CCN[C@@H](Cc2cccc(F)c2)C1 [Example 72]	10 to 100	87 to 99 °C
Cc1cc2c(s1)Nc1ccccc1N=C2N1CCN[C@@H](Cc2ccc(Cl)cc2)C1 [Example 85]	< 10	91 to 108 °C
Cc1cc2c(s1)Nc1ccccc1N=C2N1CCN[C@@H](CCCCc2ccccc2)C1 [Example 194]	< 10	
Cc1cc2c(s1)Nc1ccccc1N=C2N1CCN[C@@H](CCc2ccccc2F)C1 [Example 178, 10-((S)-3-(2-(2-Fluoro-phenyl)-ethyl)-piperazin-1-yl)-2-methyl-4H-3-thia-4,9-diaza-benzo[f]azulene dihydrochloride]	10 to 100	
COc1ccc(C[C@H]2CN(C3=Nc4ccccc4Nc4sc(C)cc43)CCN2)cc1 [Example 77]	10 to 100	85 to 98 °C
Cc1cc2c(s1)Nc1ccccc1N=C2N1CCN[C@@H](Cc2cc(F)cc(F)c2)C1 [Example 88]	< 10	
CC(C)n1nc2c(n1)C(N1CCN[C@@H](CCc3ccccc3)C1)=Nc1ccccc1N2 [Example 594, (S)-2-Isopropyl-10-(3-phenethyl-piperazin-1-yl)-2,4-dihydro-1,2,3,4.9-pentaaza-benzo[f]azulene dihydrochloride hemihydrate]	< 10	
Cc1cc2c(s1)Nc1ccccc1N=C2N1CCN(C)[C@@H](CCc2ccc(F)cc2)C1 [Example 182, 10-((S)-3-(2-(4-Fluoro-phenyl)-ethyl]-4-methyl-piperazin-1-yl)-2-methyl-4H-3-thia-4,9-diaza-benzo[f]azulene dihydrochloride]	10 to 100	
COc1ccccc1CC[C@H]1CN(C2=Nc3ccccc3Nc3sc(C)cc32)CCN1C [Example 187, 10-((S)-3-(2-(2-Methoxy-phenyl)-ethyl)-4-methyl-piperazin-1-yl)-2-methyl-4H-3-thia-4,9-diaza-benzo[f]azulene dihydrochloride]	10 to 100	
CN1CCN(C2=Nc3ccccc3Nc3ccc(C(F)(F)F)cc32)CC1 [Example 606, 11-(4-Methyl-piperazin-1-yl)-2-trifluoromethyl-5H-dibenzo[b,e][1,4]diazepine]		68 to 72 °C
Cc1cc2c(s1)Nc1ccccc1N=C2N1CCN[C@@H](CCc2ccccc2C(F)(F)F)C1 [Example 394, 10-((S)-3-[2-(2-Trifluoromethyl-phenyl)-ethyl]-piperazin-1-yl)-2-methyl-4H-3-thia-4,9-diaza-benzo[f]azulene]		73 °C (dec.)

Other lines, results leading:

Ki [1] [nM]	melting point	Structure (SMILES)
10 to 100		Cc1cc2c(s1)Nc1ccccc1N=C2N1CCN(C)[C@@H](CCc2cccc(F)c2)C1 [Example 183, 10-((S)-3-(2-(3-Fluoro-phenyl)-ethyl)-4-methyl-piperazin-1-yl)-2-methyl-4H-3-thia-4,9-diaza-benzo[f]azulene dihydrochloride]
< 10	84 to 102 °C	Cc1cc2c(s1)Nc1ccccc1N=C2N1CCN[C@@H](Cc2ccccc2F)C1 [Example 71]
< 10	96 to 109 °C	COc1cccc(C[C@H]2CN(C3=Nc4ccccc4Nc4sc(C)cc43)CCN2)c1 [Example 76]
< 10	95 to 104 °C	Cc1cc2c(s1)Nc1ccccc1N=C2N1CCN[C@@H](Cc2cccs2)C1 [Example 80]
10 to 100		Cc1cc2c(s1)Nc1ccccc1N=C2N1CCN[C@@H](CCc2cccc(F)c2)C1 [Example 177, 10-((S)-3-(2-(3-Fluoro-phenyl)-ethyl)-piperazin-1-yl))-2-methyl-4H-3-thia-4,9-diaza-benzo[f]azulene dihydrochloride]
10 to 100		Cc1cc2c(s1)Nc1ccccc1N=C2N1CCN[C@@H](CCc2ccc(F)cc2)C1 [Example 176, 10-((S)-3-(2-(4-Fluorophenyl)-ethyl)-piperazin-1-yl)-2-methyl-4H-3-thia-4,9-diaza-benzo[f]azulene dihydrochloride]
10 to 100	67 to 83 °C	Cc1cccc(C[C@H]2CN(C3=Nc4ccccc4Nc4sc(C)cc43)CCN2C)c1 [Example 103]
10 to 100	92 to 101 °C	Cc1ccc(C[C@H]2CN(C3=Nc4ccccc4Nc4sc(C)cc43)CCN2)cc1 [Example 69]
10 to 100		Cc1cc2c(s1)Nc1ccccc1N=C2N1CCN[C@@H](Cc2cccc(Cl)c2)C1 [Example 87]
< 10	80 to 97 °C	Cc1cccc(C[C@H]2CN(C3=Nc4ccccc4Nc4sc(C)cc43)CCN2)c1 [Example 70]
10 to 100		COc1ccccc1CC[C@H]1CN(C2=Nc3ccccc3Nc3sc(C)cc32)CCN1 [Example 181, 10-((S)-3-(2-(2-Methoxy-phenyl)-ethyl)-piperazin-1-yl)-2-methyl-4H-3-thia-4,9-diaza-benzo[f]azulene dihydrochloride]
10 to 100		Cc1nc2c(s1)Nc1ccccc1N=C2N1CCN(C)[C@@H](CCc2ccccc2)C1 [Example 461, (S)-2-Methyl-10-(4-methyl-3-phenethyl-piperazin-1-yl)-4H-3-thia-1,4,9-triaza-benzo[f]azulene dihydrochloride hemihydrate]
10 to 100		Cc1cc2c(s1)Nc1ccccc1N=C2N1CCN(C)[C@@H](CCCCc2ccccc2)C1 [Example 195, (S)-2-Methyl-10-(3-(4-phenyl-butyl)-4-methyl-piperazin-1-yl)-4H-3-thia-4,9-diaza-benzo[f]azulene, dihydrochloric acid]
< 10		COc1ccc(CC[C@H]2CN(C3=Nc4ccccc4Nc4sc(C)cc43)CCN2)cc1 [Example 179, 10-((S)-3-(2-(4-methoxy-phenyl)-ethyl)-piperazin-1-yl)-2-methyl-4H-3-thia-4,9-diaza-benzo[f]azulene dihydrochloride]
10 to 100		COc1ccc(CC[C@H]2CN(C3=Nc4ccccc4Nc4sc(C)cc43)CCN2C)cc1 [Example 185, 10-((S)-3-(2-(4-Methoxy-phenyl)-ethyl)-4-methyl-piperazin-1-yl)-2-methyl-4H-3-thia-4,9-diaza-benzo[f]azulene dihydrochloride]
10 to 100		Cc1cc2c(s1)Nc1ccccc1N=C2N1CCN(C)[C@@H](CCc2ccccc2F)C1 [Example 184, 10-((S)-3-(2-(2-Fluoro-phenyl)-ethyl)-4-methyl-piperazin-1-yl)-2-methyl-4H-3-thia-4,9-diaza-benzo[f]azulene dihydrochloride]
< 10		COc1cccc(CC[C@H]2CN(C3=Nc4ccccc4Nc4sc(C)cc43)CCN2C)c1 [Example 186, 10-((S)-3-(2-(3-Methoxy-phenyl)-ethyl)-4-methyl-piperazin-1-yl)-2-methyl-4H-3-thia-4.9-diaza-benzo[f]azulene dihydrochloride]
	250 to 252 °C	Cc1nc2c(s1)Nc1ccccc1N=C2N1CCN[C@@H](Cc2ccccc2)C1 [Example 462]
